Consider two compounds from paper PMC6032018, “Post-translational regulation of a Porphyromonas gingivalis regulator” (Journal of Oral Microbiology, 2018).

For assay [1], the target named is T1, RprY (Porphyromonas gingivalis, UniProt B2RK10).
T1 construct: N-terminal His6-RprY (pETRprY), recombinant from E. coli BL21(DE3), 28 kDa ORF; already phosphorylated as purified
Briefly: EMSA with nqrA promoter DNA and in vitro ChIP after treatment with AcP. The assay is classed as biochemical. As to conditions: phosphoryl donor; covalent; protein as purified already partly phosphorylated; acetylation by AcP not ruled out.

Assay [2] deals with T1, RprY. Briefly: autoacetylation, anti-acetyl-lysine Western blot. As to conditions: 10 mM Tris-HCl pH 8.0, 37 °C, no added enzyme; covalent (lysine acetylation); acetyl donor. The assay is classed as biochemical. In general terms: Immunoblotting shows a protein as a band on a membrane.

T1 sequence (B2RK10 entry or part of it): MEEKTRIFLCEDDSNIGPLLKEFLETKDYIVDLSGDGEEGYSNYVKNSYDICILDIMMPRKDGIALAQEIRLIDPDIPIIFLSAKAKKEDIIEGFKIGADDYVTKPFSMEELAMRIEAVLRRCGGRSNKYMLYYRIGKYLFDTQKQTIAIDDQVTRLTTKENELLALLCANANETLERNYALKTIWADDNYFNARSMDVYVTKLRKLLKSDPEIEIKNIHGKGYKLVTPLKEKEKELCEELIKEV

As to `CC(=O)OP(=O)(O)O` [acetyl phosphate], the “EMSA with nqrA promoter DNA and in vitro ChIP after treatment with AcP” value in assay [1] is reported as “increasing concentrations of AcP resulted in increased incorporation of the labelled promoter into RprY-DNA complexes”.
Consider `CC(=O)SCCNC(=O)CCNC(=O)[C@H](O)C(C)(C)COP(=O)(O)OP(=O)(O)OC[C@H]1O[C@@H](n2cnc3c(N)ncnc32)[C@H](O)[C@@H]1OP(=O)(O)O` [acetyl-CoA], for which the “autoacetylation, anti-acetyl-lysine Western blot” value in assay [2] was “RprY was dependent on both the concentration of Ac-CoA and the length of incubation”.
